Assay results taken from patent publication US9598362B2, “Benzidine derivative, method for preparing same, and pharmaceutical composition containing benzidine derivative for treating liver disease caused by hepatitis C virus” (priority 2013, dated 2017).
Like-named read-outs stand apart in the source and are kept apart here.

Key:
HCV (JFH-5aFlucm4) = experiment: Evaluation of anti-HCV activity 1: huh7.5.1 cells inoculated with HCV carrying renilla luciferase reporter; format: cell-based; settings: Hepatitis C virus
Description: To evaluate the anti-HCV activity of the compound represented by formula 1 of the present invention, the following experiment was performed.
The hepatoma cell line huh7.5.1 was distributed in a 12-well cell culture plate at the density of 50,000 cells/well. The cells were cultured in DMEM (Dulbecco's Modified Eagle's Medium 12800-017, GIBCO Co.) supplemented with 10% (v/v) FBS (Fetal Bovine Serum SH30406.02, Hyclone Co.) and 1% (v/v) antibiotics (penicillin/streptomycin solution SV30010, Hyclone Co.) in a 37° C. 6.0% CO2 incubator (CO2 Incubator 311, Forma Scientific Co, Lnc. USA) for 24 hours to lead cell attachment on the plate. Then, the cells were inoculated with HCV (JFH-5aFlucm4, PLoS One. 2011; 6(8):e228808.) having renilla luciferase gene as a reporter for 3 hours. Upon completion of the virus inoculation, the cell culture medium was replaced with the medium containing the compounds prepared in Examples 1˜24 at the concentration of 1 μM each. The cells were cultured in a 37° C. 6.0% CO2 incubator (CO2 Incubator 311, Forma Scientific Co, Lnc. USA) for 3 days. Three days after the infection, the cell culture medium was collected to measure the cytotoxicity in the following Experimental Example 3. The cells attached on the plate were washed with PBS (phosphate buffered saline) and then lysed by treating 100 μl of 1× passive lysis buffer (Promega, E1941). The cell lysate (10 μl) was added to renilla luciferase assay reagent (50 μl) in renilla luciferase assay system (Promega, E2820), followed by measurement of luminescence for 10 seconds using the luciferase measure program with Luminometer (GLOMAX 20/20 Luminometer, Promega). At this time, the measurement of luminescence was performed in triplicate with the groups treated with the compounds of Examples 1˜24 and the non-treated control group. The mean value was calculated and compared. The luminescence of each compound over the concentration was converted into EC50 (half maximal effective concentration) by using sigma plot program, and the results are shown in Table 2.

HCV replicon NK/R2AN = experiment: Evaluation of anti-HCV activity 2: inhibition of HCV replication, huh7.5.1 cells with replicon NK/R2AN, renilla luciferase; format: cell-based; settings: for EC50: Hepatitis C virus; for EC50 (in words): duplicated HCV treated with compound
Description: To evaluate the anti-HCV activity, that is the activity to inhibit HCV replication, of the compound represented by formula 1 of the present invention, the following experiment was performed.
The hepatoma cell line huh7.5.1 having NK/R2AN, the replicon with which the replication and translation of HCV could be measured, was distributed in a 12-well cell culture plate at the density of 50,000 cells/well. The cells were cultured in DMEM (Dulbecco's Modified Eagle's Medium 12800-017, GIBCO Co.) supplemented with 10% (v/v) FBS (Fetal Bovine Serum SH30406.02, Hyclone Co.), 1% (v/v) antibiotics (penicillin/streptomycin solution SV30010, Hyclone Co.), and G418 (600 μg/mL, Calbiochem) in a 37° C. 6.0% CO2 incubator (CO2 Incubator 311, Forma Scientific Co, Lnc. USA) for 24 hours to lead cell attachment on the plate. Then, the cells were inoculated with HCV having renilla luciferase gene as a reporter for 3 hours. Upon completion of the virus inoculation, the cell culture medium was replaced with the medium containing the compounds prepared in Examples 1˜24 were added to the culture medium at the concentrations of 40 pM˜1 μM each. The cells were cultured in a 37° C. 6.0% CO2 incubator (CO2 Incubator 311, Forma Scientific Co, Lnc. USA) for 3 days. Three days after the infection, the cell culture medium was collected to measure the cytotoxicity in the following Experimental Example 3. The cells attached on the plate were washed with PBS (phosphate buffered saline) and then lysed by treating 100 μl of 1× passive lysis buffer (Promega, E1941). The cell lysate (10 μl) was added to renilla luciferase assay reagent (50 μl) in renilla luciferase assay system (Promega, E2820), followed by measurement of luminescence for 10 seconds using the luciferase measure program with Luminometer (GLOMAX 20/20 Luminometer, Promega). At this time, the measurement of luminescence was performed in triplicate with the groups treated with the compounds of Examples 1˜24 and the non-treated control group. The mean value was calculated and compared. The luminescence of each compound over the concentration was converted into EC50 (half maximal effective concentration) by using sigma plot program, and the results are shown in Table 3. At this time, when EC50 was under 100 pM, it was marked as A; when EC50 was in the range of 100 pM 1 nM, it was marked as B; when EC50 was in the range of 1 nM˜100 nM, it was marked as C; and when EC50 was over 100 nM, it was marked as D. The results are shown in Table 3.

[1] = Huh-7.5.1, 72 h, read-out: EC50 grade
[2] = Huh-7.5.1, replicon huh7.5.1 cells, Table 3, read-out: EC50

Compound | EC50 (HCV (JFH-5aFlucm4); [1]) [nM] | EC50 (HCV (JFH-5aFlucm4); Huh-7.5.1) [nM] | EC50 (HCV replicon NK/R2AN; [1]) [nM] | EC50 (HCV replicon NK/R2AN; [2]) [nM] | EC50 (in words) (HCV replicon NK/R2AN)
COC(=O)N[C@H](C(=O)N1CCC[C@H]1C(=O)Nc1ccc(-c2ccc(NC(=O)[C@@H]3CCCN3C(=O)[C@@H](NC(=O)OC)C(C)C)cc2)cc1)C(C)C [Example 20, dimethyl(2S,2′S)-1,1′-((2S,2′R)-2,2′-(biphenyl-4,4′-diylbis(azandiyl))bis(oxomethylene)bis(pyrrolidine-2,1-diyl))bis(3-methyl-1-oxobutane-2,1-diyl)dicarbamate] | > 100 |  |  |  | 
COC(=O)N[C@@H](C(=O)N1CCC[C@H]1C(=O)Nc1ccc(-c2ccc(NC(=O)[C@@H]3CCCN3C(=O)[C@H](NC(=O)OC)c3ccccc3)cc2C)c(C)c1)c1ccccc1 [Example 3, dimethyl((1R,1′R)-((2S,2′S)-2,2′-(((2,2′-dimethyl-[1,1′-biphenyl]-4,4′-diyl)bis(azandiyl))bis(carbonyl))bis(pyrrolidine-2,1-diyl))bis(2-oxo-1-phenylethane-2,1-diyl))dicarbamate] | < 1 | < 1 | < 0.1 | < 0.1 | significantly low
COC(=O)N[C@@H](C(=O)N1CCC[C@H]1C(=O)Nc1ccc(-c2ccc(NC(=O)[C@@H]3CCCN3C(=O)[C@H](NC(=O)OC)c3ccccc3)cc2Br)c(Br)c1)c1ccccc1 [Example 7, dimethyl((1R,1′R)-((2S,2′S)-2,2′-(((2,2′-dibromo-[1,1′-biphenyl]-4,4′-diyl)bis(azandiyl))bis(carbonyl))bis(pyrrolidine-2,1-diyl))bis(2-oxo-1-phenylethane-2,1-diyl))dicarbamate] | < 1 | < 1 | < 0.1 | < 0.1 | significantly low
COC(=O)N[C@@H](C(=O)N1CCC[C@H]1C(=O)Nc1ccc2c(c1)C(=O)c1cc(NC(=O)[C@@H]3CCCN3C(=O)[C@H](NC(=O)OC)c3ccccc3)ccc1-2)c1ccccc1 [Example 24, dimethyl((1R,1′R)-((2S,2′S)-2,2′-(((9-oxo-9H-fluorene-2,7-diyl)bis(azandiyl))bis(carbonyl))bis(pyrrolidine-2,1-diyl))bis(2-oxo-1-phenylethane-2,1-diyl))dicarbamate] | 1 to 100 |  | < 0.1 | < 0.1 | significantly low
COC(=O)N[C@@H](C(=O)N1CCCC[C@@H]1C(=O)Nc1ccc(-c2ccc(NC(=O)[C@H]3CCCCN3C(=O)[C@H](NC(=O)OC)c3ccccc3)cc2)cc1)c1ccccc1 [Example 11, dimethyl((1R,1′R)-((2R,2′R)-2,2′-(([1,1′-biphenyl]-4,4′-diylbis(azandiyl))bis(carbonyl))bis(piperidine-2,1-diyl))bis(2-oxo-1-phenylethane-2,1-diyl))dicarbamate] | > 100 |  | > 100 |  | 
CN(C)[C@@H](C(=O)N1CCC[C@H]1C(=O)Nc1ccc(-c2ccc(NC(=O)[C@@H]3CCCN3C(=O)[C@@H](c3ccccc3)N(C)C)cc2)cc1)c1ccccc1 [Example 14, (S,2S,2′S)—N,N′-(biphenyl-4,4′-diyl)bis(1-((S)-2-(dimethylamino)-2-phenylacetyl)pyrrolidine-2-carboxamide)] | 1 to 100 |  | 0.1 to 1 |  | 
COC(=O)N[C@@H](C(=O)N1CCC[C@]1(C)C(=O)Nc1ccc(-c2ccc(NC(=O)[C@@]3(C)CCCN3C(=O)[C@H](NC(=O)OC)c3ccccc3)cc2)cc1)c1ccccc1 [Example 12, dimethyl((1R,1′R)-((2S,2′S)-2,2′-(([1,1′-biphenyl]-4,4′-diylbis(azandiyl))bis(carbonyl))bis(2-methylpyrrolidine-2,1-diyl))bis(2-oxo-1-phenylethane-2,1-diyl))dicarbamate] | > 100 |  | 1 to 100 |  | 
COC(=O)N[C@@H](C(=O)N1CCC[C@H]1C(=O)Nc1ccc(-c2ccc(NC(=O)[C@@H]3CCCN3C(=O)[C@H](NC(=O)OC)c3ccccc3)cc2F)c(F)c1)c1ccccc1 [Example 5, dimethyl((1R,1′R)-((2S,2′S)-2,2′-(((2,2′-difluoro-[1,1′-biphenyl]-4,4′-diyl)bis(azandiyl))bis(carbonyl))bis(pyrrolidine-2,1-diyl))bis(2-oxo-1-phenylethane-2,1-diyl))dicarbamate] | < 1 | < 1 | < 0.1 | < 0.1 | significantly low
COC(=O)N[C@@H](C(=O)N1CCCC[C@H]1C(=O)Nc1ccc(-c2ccc(NC(=O)[C@@H]3CCCCN3C(=O)[C@H](NC(=O)OC)c3ccccc3)cc2)cc1)c1ccccc1 [Example 10, dimethyl((1R,1′R)-((2S,2′S)-2,2′-(([1,1′-biphenyl]-4,4′-diylbis(azandiyl))bis(carbonyl))bis(piperidine-2,1-diyl))bis(2-oxo-1-phenylethane-2,1-diyl))dicarbamate] | > 100 |  | 1 to 100 |  | 
COC(=O)N[C@@H](C(=O)N1CCC[C@H]1C(=O)Nc1ccc(-c2ccc(NC(=O)[C@@H]3CCCN3C(=O)[C@H](NC(=O)OC)c3ccccc3)cc2C(F)(F)F)c(C(F)(F)F)c1)c1ccccc1 [Example 2, dimethyl((1R,1′R)-((2S,2′S)-2,2′-(((2,2′-bis(trifluoromethyl)-[1,1′-biphenyl]-4,4′-diyl)bis(azandiyl))bis(carbonyl))bis(pyrrolidine-2,1-diyl))bis(2-oxo-1-phenylethane-2,1-diyl))dicarbamate] | < 1 | < 1 | < 0.1 | < 0.1 | significantly low
COC(=O)N[C@@H](C(=O)N1CCC[C@H]1C(=O)Nc1ccc(-c2ccc(NC(=O)[C@@H]3CCCN3C(=O)[C@H](NC(=O)OC)C(C)C)cc2)cc1)C(C)C [Example 13, dimethyl(2R,2′R)-1,1′-((2S,2′S)-2,2′-(biphenyl-4,4′-diylbis(azandiyl))bis(oxomethylene)bis(pyrrolidine-2,1-diyl))bis(3-methyl-1-oxobutane-2,1-diyl)dicarbamate] | > 100 |  |  |  | 
COC(=O)N[C@@H](C)C(=O)N1CCC[C@H]1C(=O)Nc1ccc(-c2ccc(NC(=O)[C@@H]3CCCN3C(=O)[C@H](C)NC(=O)OC)cc2)cc1 [Example 18, dimethyl(2S,2′S)-1,1′-((2S,2′R)-2,2′-(biphenyl-4,4′-diylbis(azandiyl))bis(oxomethylene)bis(pyrrolidine-2,1-diyl))bis(1-oxopropane-2,1-diyl)dicarbamate] | > 100 |  |  |  | 
O=C(Nc1ccc(-c2ccc(NC(=O)[C@@H]3CCCN3C(=O)[C@H]3CCCO3)cc2)cc1)[C@@H]1CCCN1C(=O)[C@H]1CCCO1 [Example 17] | > 100 |  |  |  | 
COC(=O)N[C@H](C(=O)N1CCC[C@H]1C(=O)Nc1ccc(-c2ccc(NC(=O)[C@@H]3CCCN3C(=O)[C@@H](NC(=O)OC)C(C)(C)C)cc2)cc1)C(C)(C)C [Example 19, dimethyl(2S,2′S)-1,1′-((2S,2′R)-2,2′-(biphenyl-4,4′-diylbis(azandiyl))bis(oxomethylene)bis(pyrrolidine-2,1-diyl))bis(3,3-dimethyl-1-oxobutane-2,1-diyl)dicarbamate] | 1 to 100 |  |  |  | 
